Experimental data as given in publication PMC6112376, “Comprehensive Analyses and Prioritization of Tox21 10K Chemicals Affecting Mitochondrial Function by in-Depth Mechanistic Studies” (Environmental Health Perspectives, 2018).
Where two headings read alike, the source gives them in different places.

Tests used:
[1] = system: p53 (p53-bla HCT-116 cells); assay: p53 β-lactamase reporter gene assay; type: cell-based, human; settings: 16 h incubation; mean±SD of three experiments
HepG2 cells [2] = assay: cells; settings: Homo sapiens; for Emax: HepG2, read-out: MMP assays efficacy (%) HepG2
[3] = system: Caenorhabditis elegans (Bristol N2); settings: Bristol N2 (wild type), Caenorhabditis elegans, in vivo
[4] = system: Caenorhabditis elegans (Bristol N2); assay: C. elegans larval development and growth assay; settings: for minimal effective concentration: Caenorhabditis elegans, read-out: LEC EXT: lowest effect concentration for extinction, a measure of nematode size
rat primary hepatocytes [5] = assay: MMP assay in rat primary hepatocytes; settings: Rattus norvegicus, Hepatocyte
HepG2 cells [6] = assay: Intracellular ATP content (cell viability) assay; type: cell-based, human; settings: Homo sapiens, HepG2, 40 h
hNSC = assay: MMP assay in human neural stem cells (hNSC); type: cell-based; settings: Homo sapiens, Neural stem cell, 1 h, read-out: hNSC IC50 (MMP)
[7] = system: isolated rat liver mitochondria; assay: Oxygen consumption, Clark-type oxygen electrode; type: biochemical
[8] = system: Nrf2/ARE (ARE-bla HepG2 cells); assay: ARE β-lactamase reporter gene assay; type: cell-based, human; settings: 16 h incubation, mean±SD of three experiments
HepG2 cells [9] = settings: cited from earlier work; for IC50: read-out: MMP assays IC50 (µM) qHTS-HepG2
rat primary hepatocytes [10] = system: rat primary hepatocytes
HepG2 cells [11] = assay: ROS-Glo hydrogen peroxide (ROS) assay; type: cell-based, human; settings: Homo sapiens, HepG2, 2 h, read-out: ROS (HepG2) EC50
[12] = system: Caenorhabditis elegans strain PE255; assay: In vivo C. elegans ATP status assay; settings: for minimal effective concentration: Caenorhabditis elegans, read-out: LEC LUM: lowest effect concentration for luminescence, a measure of nematode ATP content
[13] = system: HeLa cells expressing YFP-Parkin; assay: Parkin translocation assay; type: cell-based, human
[14] = system: Caenorhabditis elegans strain PE255; settings: PE255 [sur-5::luc+::gfp; rol-6(su1006)], Caenorhabditis elegans, in vivo
[15] = HepG2, 1 h, read-out: HepG2 IC50 Galactose (MMP)
[16] = HepG2, 1 h, read-out: HepG2 IC50 Glucose (MMP)
[17] = HepG2, read-out: MMP assays IC50 (µM) HepG2
[18] = 1 h, read-out: Rat hepatocytes IC50 (MMP)
[19] = read-out: MMP assays IC50 (µM) Rat Hepatocytes
[20] = read-out: ATP (HepG2, galactose) IC50
[21] = read-out: ATP (HepG2, glucose) IC50

O=C1c2ccccc2C(=O)C1C(=O)C(c1ccccc1)c1ccc(Cl)cc1 (centres unmarked) [Chlorophacinone]
p53 (HCT-116) EC50 [1]: Inactive
IC50 (HepG2 cells [2]; [15]): 46.3 µM
IC50 (HepG2 cells [2]; [16]): 27.1 µM
IC50 (HepG2 cells [2]; [17]): 3.55 µM
Emax (HepG2 cells [2]): 109%
LEC (lowest effect concentration), larval growth assay [3]: < 10 µM
EXT: mean difference in nematode size relative to plate controls ([4]; 0.5 µM): 0.2337
EXT: mean difference in nematode size relative to plate controls ([4]; 1 µM): 0.388
EXT: mean difference in nematode size relative to plate controls ([4]; 5 µM): 0.7901
EXT: mean difference in nematode size relative to plate controls ([4]; 10 µM): 1.11
EXT: mean difference in nematode size relative to plate controls ([4]; 25 µM): 1.457
EXT: mean difference in nematode size relative to plate controls ([4]; 50 µM): 1.812
EXT: mean difference in nematode size relative to plate controls ([4]; 75 µM): 1.667
EXT: mean difference in nematode size relative to plate controls ([4]; 100 µM): 1.868
minimal effective concentration [4]: 1 µM
IC50 (rat primary hepatocytes [5]; [18]): 10.5 µM
IC50 (rat primary hepatocytes [5]; [19]): 4.65 ± 4.78 µM
IC50 (HepG2 cells [6]; [20]): 41.4 µM
IC50 (HepG2 cells [6]; [21]): 48.2 µM
IC50 (hNSC): 12.6 µM
Potential Mechanism [7]: Uncoupler at low concentrations (0.8-4 µM), and Uncoupler + inhibitor at high concentrations (20 -100 µM)
I-ADP, % of control (O2 consumption rate) ([7]; 0.16 µM): 104 (45.2) % of control
I-sub, % of control (O2 consumption rate) ([7]; 0.16 µM): 112 (14.7) % of control
II-ADP, % of control (O2 consumption rate) ([7]; 0.16 µM): 97 (66.0) % of control
II-sub, % of control (O2 consumption rate) ([7]; 0.16 µM): 97 (20.2) % of control
I-ADP, % of control (O2 consumption rate) ([7]; 0.8 µM): 95 (41.2) % of control
I-sub, % of control (O2 consumption rate) ([7]; 0.8 µM): 111 (14.5) % of control
II-ADP, % of control (O2 consumption rate) ([7]; 0.8 µM): 107 (72.3) % of control
II-sub, % of control (O2 consumption rate) ([7]; 0.8 µM): 125 (26.1) % of control
I-ADP, % of control (O2 consumption rate) ([7]; 4 µM): 97 (42.2) % of control
I-sub, % of control (O2 consumption rate) ([7]; 4 µM): 182 (23.9) % of control
II-ADP, % of control (O2 consumption rate) ([7]; 4 µM): 87 (58.8) % of control
II-sub, % of control (O2 consumption rate) ([7]; 4 µM): 203 (42.5) % of control
I-ADP, % of control (O2 consumption rate) ([7]; 20 µM): 72 (31.3) % of control
I-sub, % of control (O2 consumption rate) ([7]; 20 µM): 285 (37.3) % of control
II-ADP, % of control (O2 consumption rate) ([7]; 20 µM): 39 (26.3) % of control
II-sub, % of control (O2 consumption rate) ([7]; 20 µM): 150 (31.3) % of control
I-ADP, % of control (O2 consumption rate) ([7]; 100 µM): 21 (11.4) % of control
I-sub, % of control (O2 consumption rate) ([7]; 100 µM): 110 (14.8) % of control
II-ADP, % of control (O2 consumption rate) ([7]; 100 µM): 15 (9.9) % of control
II-sub, % of control (O2 consumption rate) ([7]; 100 µM): 61 (13.1) % of control
ARE (HepG2) EC50 [8]: Inactive
MMP assays efficacy (%) qHTS-HepG2 (HepG2 cells [9]): -103±9%
IC50 (HepG2 cells [9]): 0.64 ± 0.25 µM
MMP assays efficacy (%) Rat Hepatocytes (rat primary hepatocytes [10]): -86±11%
Rat hepatocytes (efficacy) (MMP) (rat primary hepatocytes [10]): 10.5±4.28 ( −97.8±13.3 ) %
EC50 (HepG2 cells [11]): 41.7 µM
LUM: mean difference in luminescence (ATP content) relative to plate controls ([12]; 0.5 µM): 0.2858
LUM: mean difference in luminescence (ATP content) relative to plate controls ([12]; 1 µM): 0.2624
LUM: mean difference in luminescence (ATP content) relative to plate controls ([12]; 5 µM): 0.9157
LUM: mean difference in luminescence (ATP content) relative to plate controls ([12]; 10 µM): 0.9688
LUM: mean difference in luminescence (ATP content) relative to plate controls ([12]; 25 µM): 0.9113
LUM: mean difference in luminescence (ATP content) relative to plate controls ([12]; 50 µM): 1.406
LUM: mean difference in luminescence (ATP content) relative to plate controls ([12]; 75 µM): 1.423
LUM: mean difference in luminescence (ATP content) relative to plate controls ([12]; 100 µM): 1.347
minimal effective concentration [12]: 5 µM
Parkin recruitment [13]: Inactive
LEC (lowest effect concentration), ATP assay [14]: < 10 µM

CC(C)(C)c1cc([N+](=O)[O-])cc([N+](=O)[O-])c1O [Dinoterb]
IC50 (HepG2 cells [2]; [15]): 7.19 µM
IC50 (HepG2 cells [2]; [16]): 7.23 µM
IC50 (HepG2 cells [2]; [17]): 2.24 µM
Emax (HepG2 cells [2]): 101%
LEC (lowest effect concentration), larval growth assay [3]: < 10 µM
minimal effective concentration [4]: 5 µM
IC50 (rat primary hepatocytes [5]; [18]): 2.39 µM
IC50 (rat primary hepatocytes [5]; [19]): 0.76 ± 0.45 µM
IC50 (HepG2 cells [6]; [20]): 22.3 µM
IC50 (HepG2 cells [6]; [21]): 19.7 µM
IC50 (hNSC): 10.1 µM
Potential Mechanism [7]: Uncoupler at low concentrations (0.032-0.8 µM), and Uncoupler + inhibitor at high concentrations (4-100 µM)
effect on mitochondrial respiration (in words) [7]: effects similar to those of FCCP
uncoupler effect at (concentration) in the oxygen consumption assay [7]: 0.032 µM
I-ADP, % of control (O2 consumption rate) ([7]; 0.0064 µM): 103 (38.3) % of control
I-sub, % of control (O2 consumption rate) ([7]; 0.0064 µM): 92 (9.9) % of control
II-ADP, % of control (O2 consumption rate) ([7]; 0.0064 µM): 105 (66) % of control
II-sub, % of control (O2 consumption rate) ([7]; 0.0064 µM): 99 (18.4) % of control
I-ADP, % of control (O2 consumption rate) ([7]; 0.032 µM): 95 (41.5) % of control
I-sub, % of control (O2 consumption rate) ([7]; 0.032 µM): 135 (17.7) % of control
II-ADP, % of control (O2 consumption rate) ([7]; 0.032 µM): 97 (65.4) % of control
I-ADP, % of control (O2 consumption rate) ([7]; 0.16 µM): 113 (49.2) % of control
I-sub, % of control (O2 consumption rate) ([7]; 0.16 µM): 206 (27.0) % of control
II-ADP, % of control (O2 consumption rate) ([7]; 0.16 µM): 106 (72.0) % of control
II-sub, % of control (O2 consumption rate) ([7]; 0.16 µM): 264 (55.1) % of control
I-ADP, % of control (O2 consumption rate) ([7]; 0.8 µM): 148 (64.4) % of control
I-sub, % of control (O2 consumption rate) ([7]; 0.8 µM): 486 (63.7) % of control
II-ADP, % of control (O2 consumption rate) ([7]; 0.8 µM): 102 (68.8) % of control
II-sub, % of control (O2 consumption rate) ([7]; 0.8 µM): 367 (76.8) % of control
I-ADP, % of control (O2 consumption rate) ([7]; 4 µM): 100 (43.7) % of control
I-sub, % of control (O2 consumption rate) ([7]; 4 µM): 320 (41.9) % of control
II-ADP, % of control (O2 consumption rate) ([7]; 4 µM): 58 (39.5) % of control
II-sub, % of control (O2 consumption rate) ([7]; 4 µM): 211 (44.0) % of control
I-ADP, % of control (O2 consumption rate) ([7]; 20 µM): 69 (30.1) % of control
I-sub, % of control (O2 consumption rate) ([7]; 20 µM): 239 (31.3) % of control
II-ADP, % of control (O2 consumption rate) ([7]; 20 µM): 11 (7.7) % of control
II-sub, % of control (O2 consumption rate) ([7]; 20 µM): 36 (7.6) % of control
I-ADP, % of control (O2 consumption rate) ([7]; 100 µM): 10 (4.9) % of control
I-sub, % of control (O2 consumption rate) ([7]; 100 µM): 23 (5.0) % of control
II-ADP, % of control (O2 consumption rate) ([7]; 100 µM): 5 (3.1) % of control
II-sub, % of control (O2 consumption rate) ([7]; 100 µM): 13 (4.4) % of control
EC50 ([8]; Homo sapiens, HepG2, read-out: ARE (HepG2) EC50): 0.52 ± 0.15 µM
MMP assays efficacy (%) qHTS-HepG2 (HepG2 cells [9]): -95±8%
IC50 (HepG2 cells [9]): 0.48 µM
MMP assays efficacy (%) Rat Hepatocytes (rat primary hepatocytes [10]): -88±9%
Rat hepatocytes (efficacy) (MMP) (rat primary hepatocytes [10]): 2.39±1.02 ( −105±23.8 ) %
EC50 (HepG2 cells [11]): 13.2 µM
minimal effective concentration [12]: 1 µM
Parkin recruitment [13]: Active
Parkin translocation into mitochondria (in words) ([13]; 3 h): patterns similar to antimycin A and FCCP
LEC (lowest effect concentration), ATP assay [14]: < 10 µM
inhibitory effect at (concentration) on ATP content in the C. elegans assay [14]: 1.0 µM
